Assays:
human thymocytes = experiment: Distribution of CD4 and CD8 cells in uninfected activated thymocytes; type: cell-based
Description: Human thymuses were obtained during corrective heart surgery operations on 3 to 7 year old children. The tissues were cut into fragments and the red blood cells were removed by treating with […] buffer. After washing in PBS buffer, cellular suspensions were prepared in an RPMI 1640 medium containing 10% of human serum type […]. Dead cells were removed by passing over a sterile nylon wool column.
The cells were infected with HIV LAV/BRU as indicated above in the general procedures, and then re-inoculated in the presence of PHA, of anti-CD2 or anti-CD3 antibodies and of IL2 and cultured for 10 days at a rate of 1×10^7 cells/ml. After 10 days, viral production was evaluated by measuring the RT activity in the supernatants and the distribution of CD4/CD8 was evaluated by double fluorescence flow cytometry by means of FITC-labelled anti-CD4 antibodies (OKT4) and phycoerythrin-labelled anti-CD8 antibodies (OKT8). DABF-AmB was added to the cultures immediately after infection and maintained during the entire duration of the culture.

gp120 = experiment: Membrane expression of gp120 in HIV-1 infected Jurkat and CEM cells; type: cell-based; details: 10 μM continuous, both cell lines, 8th day
Description: Membrane expression of CD4 and gp120 is measured by means of the monoclonal antibodies OKT4 (0,5 μg/ml), 110-4 (2 μg/ml) respectively, which are stained using a […].
The fluorescence is measured by means of a FACSTAR cell counter (BECTON DICKINSON, MOUNTAIN VIEW, Calif.). The results are expressed as mean fluorescence intensity.
The anti-gpl10 monoclonal antibody 110-4 (GENETIC SYSTEMS CORP., Seattle, Wash.) also recognizes gP120 at the surface of the T cells.
(§1) Immunofluorescence analyses are carried out on the 8th day of the infection in order to verify whether the inhibition of HIV replication by DABF-AmB results in 10 a reduced membrane expression of viral antigens.

HUT78 cells = experiment: Cytotoxicity in HUT78 cells; type: cell-based
Jurkat cells = experiment: Cell viability of Jurkat cells; type: cell-based, human; details: concentrations above 100 μM
Text: (§2) Cell viability was estimated at the same time. […] It therefore appears that DABF-AmB inhibits the replication of HIV at doses which are not cytotoxic.

CEM cells = experiment: Cell viability of CEM cells; type: cell-based, human; details: concentrations above 100 μM
Text: as §2

kallicrein = experiment: Activity of DABF-AmB on various proteases: kallicrein; type: biochemical; details: 1 μM, results not shown
Description: DABF-AmB was tested, at a concentration of 1 μM, on various proteases (papain, chymotrypsin, kallicrein, leucocyte elastase, cathopsin D and recombinant protease p10) under conditions and in the presence of substrates appropriate for each of the proteases tested.

HIV = experiment: Viral expression in reactivated infected CD4 cells from patients (p24 ELISA); type: cell-based; details: Human immunodeficiency virus 1, 240 h, 7 patients tested
Text: The activation of infected CD4+cells is known to stimulate the production of the virus. The effect of DABF-AmB was therefore tested on the vital expression in cells from AIDS patients reactivated in vitro by anti-CD3, by anti-CD28, by PMA (phorbol myristate acetate) or by soluble anti-CD3.
PBMCs from patients (<300 CD4) were isolated on a Ficoll gradient using blood. The CD4 cells were isolated by cell sorting using a flow cytometer (FACS-Star, Becton-Dickinson, Mountain View, Calif.) after OKT4-FITC labelling. The CD4 cells were washed again and then re-inoculated as indicated in 5 and activated either with anti-CD3 or anti-CD28 antibodies or with PMA. Viral expression was evaluated after 10 days by ELISA assay of p24 in the supernatants.

HIV (cellular viraemia) = experiment: Cellular viraemia of AIDS patients' lymphocytes (p24 in supernatants); type: cell-based
Description: Lymphocytes from AIDS patients (<200CD4) are isolated on a Ficoll gradient using heparinised blood. The cells are taken up in RPMI 1640 medium containing antibiotics, 10 U/ml of recombinant IL2 (Boeringher) and anti-interferon alpha serum (anti-IFNα, Sigma) plus 10% of foetal calf serum. The cells are cultured in 24-well plates in an amount of 5×10^5 cells per well for the first concentration and then subjected to 5 fold serial dilutions in the same medium. Half of the medium is replaced twice weekly. Every week, 3×10^5 fresh allogeneic PBMCs, derived from healthy donors, are added to the cultures. The cultures are kept for 28 days in the presence of varying concentrations of DABF-AmB. Vital production is measured weekly by assaying the protein p24 in the supernatants. Each culture and each assay are carried out in duplicate.
The symbols (-) denote that the amount of p24 detected is at least 95% less than the values obtained in the untreated control cultures. […] The results obtained in the LOU patient indicates either a resistance of the virus to the product, or a too high initial viral content. These experiments made it possible to evaluate the IC50 for DABF-AmB at between 1 and 5 μM for the different viral isolates (IC50=Concentrationof the product inhibiting 50% of the p24 titer in the culture supernatants, for a patient cells dilution corresponding to a viral content equivalent to 10TCID50.

CD3 = experiment: Membrane antigen CD3 in HIV-1 infected cells; type: cell-based, human; details: treated or untreated infected cells
Description: as §1

reverse transcriptase = target: T1, reverse transcriptase (Human immunodeficiency virus type 1 (BRU ISOLATE), UniProt P03367); experiment: Direct action on reverse transcriptase in vitro; type: biochemical
T1 construct: probably viral enzyme of LAV/BRU (LAI) culture supernatant

PBMCs = experiment: Cytotoxicity on PBMCs; type: cell-based, human; details: concentrations up to 10^-3 M

## C[C@@H]1[C@H](O)[C@@H](C)/C=C/C=C/C=C/C=C/C=C/C=C/C=C/[C@H](O[C@@H]2O[C@H](C)[C@@H](O)[C@H](NCC(=O)[C@@H](O)[C@@H]3OC(c4ccccc4)OC[C@H]3O)[C@@H]2O)C[C@@H]2O[C@](O)(C[C@@H](O)C[C@@H](O)[C@H](O)CC[C@@H](O)C[C@@H](O)CC(=O)O[C@H]1C)C[C@H](O)[C@H]2C(=O)O (stereo partly drawn) [DABF-AmB, 1-deoxy-1-amino-4,6-O-benzylidene-D-fructosyl-AmB]
Human thymocytes; even at 10 μM, PHA, anti-CD2 or anti-CD3 activated
  distribution of the CD4 and CD8 cells in uninfected thymocytes: does not significantly modify
Human thymocytes; up to 10 μM
  CD4+ CD8+ population in uninfected thymocytes: slight increase
gp120
  membrane expression of gp120: substantially reduces
HUT78 cells; 50 μM, HIV2 table, 3 days
  cytotoxicity: low cytotoxicity
HUT78 cells; 50 μM, SIV table, 3 days
  cytotoxicity: low cytotoxicity
HUT78 cells; 100 μM, HIV2 table, 3 days
  cytotoxicity: high cytotoxicity
HUT78 cells; 100 μM, HIV2 table, 5 days
  cytotoxicity: cytotoxicity
HUT78 cells; 100 μM, SIV table, 3 days
  cytotoxicity: high cytotoxicity
HUT78 cells; 100 μM, SIV table, 5 days
  cytotoxicity: cytotoxicity
Jurkat cells
  cytotoxic effect: no cytotoxic effect
CEM cells
  cytotoxic effect: no cytotoxic effect
kallicrein
  inhibition of kallicrein: inhibits
HIV
  inhibition at 10 µM: > 90%
HIV (cellular viraemia); 8 different patients
  number of patients in which cellular viraemia is inhibited: 7 out of 8
HIV (cellular viraemia); Human immunodeficiency virus 1, Lymphocyte, read-out: IC50 (concentration inhibiting 50% of the p24 titer in the culture supernatants)
  IC50: 1000 to 5000 nM
HIV (cellular viraemia); patient SAM + MS, day 0
  cellular viraemia (p24): - (the amount of p24 detected is at least 95% less than the values obtained in the untreated control cultures)
HIV (cellular viraemia); patient SAM + MS, day 14
  cellular viraemia (p24): - (the amount of p24 detected is at least 95% less than the values obtained in the untreated control cultures)
HIV (cellular viraemia); patient five + MS, day 0
  cellular viraemia (p24): - (the amount of p24 detected is at least 95% less than the values obtained in the untreated control cultures)
HIV (cellular viraemia); patient five + MS, day 7
  cellular viraemia (p24): - (the amount of p24 detected is at least 95% less than the values obtained in the untreated control cultures)
HIV (cellular viraemia); patient four + MS, day 0
  cellular viraemia (p24): - (the amount of p24 detected is at least 95% less than the values obtained in the untreated control cultures)
HIV (cellular viraemia); patient four + MS, day 7
  cellular viraemia (p24): - (the amount of p24 detected is at least 95% less than the values obtained in the untreated control cultures)
HIV (cellular viraemia); patient four + MS, day 14
  cellular viraemia (p24): - (the amount of p24 detected is at least 95% less than the values obtained in the untreated control cultures)
HIV (cellular viraemia); patient four + MS, day 21
  cellular viraemia (p24): - (the amount of p24 detected is at least 95% less than the values obtained in the untreated control cultures)
HIV (cellular viraemia); patient four + MS, day 28
  cellular viraemia (p24): - (the amount of p24 detected is at least 95% less than the values obtained in the untreated control cultures)
HIV (cellular viraemia); patient one + MS, day 0
  cellular viraemia (p24): - (the amount of p24 detected is at least 95% less than the values obtained in the untreated control cultures)
HIV (cellular viraemia); patient one + MS, day 7
  cellular viraemia (p24): - (the amount of p24 detected is at least 95% less than the values obtained in the untreated control cultures)
HIV (cellular viraemia); patient seven + MS, day 0
  cellular viraemia (p24): - (the amount of p24 detected is at least 95% less than the values obtained in the untreated control cultures)
HIV (cellular viraemia); patient seven + MS, day 14
  cellular viraemia (p24): - (the amount of p24 detected is at least 95% less than the values obtained in the untreated control cultures)
HIV (cellular viraemia); patient six + MS, day 0
  cellular viraemia (p24): - (the amount of p24 detected is at least 95% less than the values obtained in the untreated control cultures)
HIV (cellular viraemia); patient six + MS, day 14
  cellular viraemia (p24): - (the amount of p24 detected is at least 95% less than the values obtained in the untreated control cultures)
HIV (cellular viraemia); patient three + MS, day 0
  cellular viraemia (p24): - (the amount of p24 detected is at least 95% less than the values obtained in the untreated control cultures)
HIV (cellular viraemia); patient three + MS, day 7
  cellular viraemia (p24): - (the amount of p24 detected is at least 95% less than the values obtained in the untreated control cultures)
HIV (cellular viraemia); patient three + MS, day 14
  cellular viraemia (p24): - (the amount of p24 detected is at least 95% less than the values obtained in the untreated control cultures)
HIV (cellular viraemia); patient three + MS, day 21
  cellular viraemia (p24): - (the amount of p24 detected is at least 95% less than the values obtained in the untreated control cultures)
HIV (cellular viraemia); patient three + MS, day 28
  cellular viraemia (p24): - (the amount of p24 detected is at least 95% less than the values obtained in the untreated control cultures)
HIV (cellular viraemia); patient two + MS, day 0
  cellular viraemia (p24): - (the amount of p24 detected is at least 95% less than the values obtained in the untreated control cultures)
HIV (cellular viraemia); patient two + MS, day 7
  cellular viraemia (p24): - (the amount of p24 detected is at least 95% less than the values obtained in the untreated control cultures)
HIV (cellular viraemia); patient two + MS, day 14
  cellular viraemia (p24): - (the amount of p24 detected is at least 95% less than the values obtained in the untreated control cultures)
HIV (cellular viraemia); patient two + MS, day 21
  cellular viraemia (p24): - (the amount of p24 detected is at least 95% less than the values obtained in the untreated control cultures)
HIV (cellular viraemia); patient two + MS, day 28
  cellular viraemia (p24): - (the amount of p24 detected is at least 95% less than the values obtained in the untreated control cultures)
CD3
  level of the membrane antigen CD3: unchanged
Reverse transcriptase
  direct action on reverse transcriptase activity: no direct action
PBMCs
  cytotoxic effect on PBMCs: without cytotoxic effect
